The text below walks through data of article PMC10353187, “Discovery of a new potent oxindole multi-kinase inhibitor among a series of designed 3-alkenyl-oxindoles with ancillary carbonic anhydrase inhibitory activity as antiproliferative agents” (BMC Chemistry, 2023).

A value given as a limit tells only on which side of the number the result lay.

The term inhibition denotes the change of the read-out against control, counted positive when it falls. The Ki is the dissociation constant of the complex between target and ligand, obtained from inhibition or displacement. Higher therefore signals weaker binding.

Experiment [1] deals with BT-549. As to the kind of experiment: NCI-60 single-dose antiproliferative assay (SRB). As to conditions: Homo sapiens; 10 μM single dose; BT-549, Breast cancer; read-out: Cell Growth inhibition Percent. The class given is cell-based. Put shortly:
(§1)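 Cells grown in RPMI 1640 with 5% FBS and 2 mM L-glutamine were plated, left 24 h at 37 °C, then exposed to compound at a single 10 µM final concentration for 48 h. Adherent cells were TCA-fixed, SRB-stained and read at 515 nm; growth was expressed relative to time-zero and untreated controls.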

In experiment [2] the test system is K-562. As to the kind of experiment: NCI-60 single-dose antiproliferative assay (SRB). It is filed as cell-based. The following applies: Homo sapiens, K562; 10 μM single dose; K-562, Leukemia; read-out: Cell Growth inhibition Percent. The gist of the method: as §1
For experiment [3], the system named is MDA-MB-435. As to the kind of experiment: NCI-60 single-dose antiproliferative assay (SRB). The class given is cell-based. The following applies: Homo sapiens; 10 μM single dose; MDA-MB-435, Melanoma; read-out: Cell Growth inhibition Percent. The gist of the method: as §1
In experiment [4] the test system is NCI-H522. Briefly: NCI-60 single-dose antiproliferative assay (SRB). It is filed as cell-based. The following applies: Homo sapiens; 10 μM single dose; NCI-H522, Non-small cell lung cancer; read-out: Cell Growth inhibition Percent. Put shortly: as §1
For experiment [5], the system named is OVCAR-8. Briefly: NCI-60 single-dose antiproliferative assay (SRB). The class given is cell-based. The following applies: Homo sapiens; 10 μM single dose; OVCAR-8, Ovarian Cancer; read-out: Cell Growth inhibition Percent. The gist of the method: as §1
In experiment [6] the test system is RPMI-8226. As to the kind of experiment: NCI-60 single-dose antiproliferative assay (SRB). As to conditions: Homo sapiens; 10 μM single dose; RPMI-8226, Leukemia; read-out: Cell Growth inhibition Percent. The class given is cell-based. The gist of the method: as §1
Experiment [7] deals with SK-MEL-5. Briefly: NCI-60 single-dose antiproliferative assay (SRB). The class given is cell-based. The following applies: Homo sapiens; 10 μM single dose; SK-MEL-5, Melanoma; read-out: Cell Growth inhibition Percent. Put shortly:
as §1

Experiment [8] relates to SW-620. Briefly: NCI-60 single-dose antiproliferative assay (SRB). As to conditions: Homo sapiens; 10 μM single dose; SW-620, Colon cancer; read-out: Cell Growth inhibition Percent. The class given is cell-based. Put shortly:
as §1

The test system of experiment [9] is U251. As to the kind of experiment: NCI-60 single-dose antiproliferative assay (SRB). It is filed as cell-based. As to conditions: Homo sapiens, U-251; 10 μM single dose; U251, CNS cancer; read-out: Cell Growth inhibition Percent. Put shortly: as §1
Experiment [10] concerns UO-31. Briefly: NCI-60 single-dose antiproliferative assay (SRB). As to conditions: UO-31, Renal cancer; for inhibition at 10 µM: Homo sapiens, UO-31, 10 μM single dose, read-out: Cell Growth inhibition Percent. The class given is cell-based, human. The gist of the method: as §1
The test system of experiment [11] is NCI 60 cancer cell lines. Briefly: NCI-60 single-dose antiproliferative assay, mean over panel. The class given is cell-based. As to conditions: Homo sapiens; 10 μM single dose; mean over all NCI panel cell lines; read-out: MEAN % Growth inhibition. How it is done: From the newly synthesized compounds, eleven compounds (4c, 4d, 5, 9a, 9b, 11a, 11b, 13b, 13c, 15b, and 15c) were selected by the National Cancer Institute (NCI) Developmental Therapeutics Program (DTP), Bethesda, Maryland, USA for the in vitro anti-proliferative activity evaluation. The selected compounds were examined at 10 μM dose against the NCI 60-cell line panel. This panel consists of nine cell line groups of leukemia, non-small cell lung carcinoma (NSCLC), melanoma, colon, CNS, ovarian, renal, prostate, and breast cancers. The results are reported as mean-graph of the percent growth relative to control and presented as percentage growth inhibition (GI%), furthermore, mean GI% of each compound over all panel cell lines was calculated (Table 1; Additional file 1; S3: In vitro biological activity).
From the newly synthesized compounds, eleven compounds were selected by the National Cancer Institute (NCI) Developmental Therapeutics Program (DTP), Bethesda, Maryland, USA for the in vitro anti-proliferative activity evaluation (For further details see supplementary materials).
NCI In-vitro Cancer Screening is a two-phase procedure that starts with the assessment of all compounds against the sixty NCI cell line panel depicting leukemia, NSCLC, CNS cancer, melanoma, prostate cancer, breast cancer, renal cancer, colon cancer and ovarian cancer cell lines at a single point of 10μM. The output from the single-dose screen is reportable as a mean graph.
The human tumor cell lines of the cancer screening panel were grown in RPMI 1640 medium containing 5% fetal bovine serum and 2 mM L-glutamine. For a typical screening experiment, cells were inoculated into 96 well microtiter plates in […] at plating densities ranging from 5000 to 40,000 cells/well depending on the doubling time of individual cell lines. After cell inoculation, the microtiter plates were incubated at 37 °C, 5% CO2, 95% air and 100% relative humidity for 24 h prior to addition of experimental drugs. After 24 h, two plates of each cell line were fixed in situ with trichloroacetic acid (TCA), to represent a measurement of the cell population for each cell line at the time of drug addition (Tz). Experimental drugs were solubilized in dimethyl sulfoxide at 400-fold the desired final maximum test concentration and stored frozen prior to use. At the time of drug addition, an aliquot of frozen concentrate was thawed and diluted to twice the desired final maximum test concentration with complete medium containing 50 µg/ml gentamicin. Aliquot of 100 µl of the drug dilution was added to the appropriate microtiter wells already containing 100 µl of medium, resulting in the required final drug concentration (10 µM). Triplicate wells were prepared for each individual dose. Following drug addition, the plates were incubated for an additional 48 h at 37 °C, 5% CO2, 95% air, and 100% relative humidity. For adherent cells, the assay was terminated by the addition of cold TCA. Cells were fixed in situ by the gentle addition of 50 µl of cold 50% (w/v) TCA (final concentration, 10% TCA) and incubated for 60 min at 4 °C. The supernatant was discarded, and the plates were washed five times with tap water and air dried. Sulforhodamine B (SRB) solution (100 µl) at 0.4% (w/v) in 1% acetic acid was added to each well, and plates were incubated for 10 min at room temperature. After staining, unbound dye was removed by washing five times with 1% acetic acid and the plates were air dried. Bound stain was subsequently solubilized with 10 mM trizma base, and the absorbance was read on an automated plate reader at a wavelength of 515 nm. For suspension cells, the methodology was the same except that the assay was terminated by fixing settled cells at the bottom of the wells by gently adding 50 µl of 80% TCA (final concentration, 16% TCA). […]

The target in experiment [12] is hCA I (Homo sapiens, UniProt P00915). Briefly: Stopped flow CO2 hydrase assay.
Chain of hCA I (P00915 whole entry): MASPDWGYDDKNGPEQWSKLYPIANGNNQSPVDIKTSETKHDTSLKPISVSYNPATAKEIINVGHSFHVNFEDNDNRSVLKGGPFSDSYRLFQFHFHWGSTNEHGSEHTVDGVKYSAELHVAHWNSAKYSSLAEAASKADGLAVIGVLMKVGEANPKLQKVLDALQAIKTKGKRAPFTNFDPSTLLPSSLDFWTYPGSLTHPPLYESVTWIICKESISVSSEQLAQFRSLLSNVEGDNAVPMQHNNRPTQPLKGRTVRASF
The target of experiment [13] is hCA II (Homo sapiens, UniProt P00918). Briefly: Stopped flow CO2 hydrase assay.
The target in experiment [14] is hCA IX (Homo sapiens, UniProt Q16790). As to the kind of experiment: Stopped flow CO2 hydrase assay.
Experiment [15] addresses hCA XII (Homo sapiens, UniProt O43570). Briefly: Stopped flow CO2 hydrase assay.
Experiment [16] relates to 786-0. As to the kind of experiment: NCI-60 single-dose antiproliferative assay (SRB). The class given is cell-based. The following applies: Homo sapiens; 10 μM single dose; 786-0, Renal cancer; read-out: Cell Growth inhibition Percent. The gist of the method:
as §1

For experiment [17], the system named is MALME-3 M. As to the kind of experiment: NCI-60 single-dose antiproliferative assay (SRB). As to conditions: Homo sapiens, 10 μM single dose, Melanoma, read-out: Cell Growth inhibition Percent. The class given is cell-based. The gist of the method: as §1

Chain of hCA XII (O43570 25-354): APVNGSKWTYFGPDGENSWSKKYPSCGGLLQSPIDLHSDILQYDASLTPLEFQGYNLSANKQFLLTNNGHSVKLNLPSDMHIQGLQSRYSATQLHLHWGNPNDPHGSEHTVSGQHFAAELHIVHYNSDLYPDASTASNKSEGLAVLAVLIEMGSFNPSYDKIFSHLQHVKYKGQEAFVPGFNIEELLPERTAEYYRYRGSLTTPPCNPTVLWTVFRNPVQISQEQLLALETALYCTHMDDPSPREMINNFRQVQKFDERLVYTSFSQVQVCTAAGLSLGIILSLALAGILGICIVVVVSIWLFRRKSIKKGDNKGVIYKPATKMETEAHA

`O=C1Nc2ccccc2C1=CNc1ccc(CNc2ccc(S(=O)(=O)Nc3ncccn3)cc2)cc1` [Compound 11b, 4-{[4-({[2-Oxoindolin-3-ylidene]methyl}amino)benzyl]amino}-N-(pyrimidin-2-yl)benzenesulfonamide]: the inhibition at 10 µM came out at 6.46% in experiment [1]; 32.8% in [2]; 32% in experiment [3]; 6.92% in [4]; 1.39% in [5]; 28.9% in [6]. For the same compound, the inhibition at 10 µM in experiment [7] is 15.2%; in experiment [8], 4.6%; in experiment [9] it was 14.4%; in experiment [10] it was 39.3%; in [11] it was 7.38%. In [10] (10 μM single dose), the “Cell Growth inhibition Percent” value is listed as 39.47%. Also, the inhibitory constant (Ki) in experiment [12] was 9.11 µM; in [13] it was 2.66 µM; in experiment [14], 7.86 µM; in experiment [15], 8.57 µM. Also, the “Selectivity ratio I/IX” value in [14] (Ki hCA I / Ki hCA IX) is listed as 1.16. For the same compound, in experiment [14] (Ki hCA II / Ki hCA IX), the “Selectivity ratio II/IX” value was determined as 0.34. For the same compound, the “Selectivity ratio I/XII” value in experiment [15] (Ki hCA I / Ki hCA XII) was 1.06. The “Selectivity ratio II/XII” value in [15] (Ki hCA II / Ki hCA XII) is listed as 0.31.
On to `O=C(Nc1ccc(NC=C2C(=O)Nc3ccccc32)cc1)Nc1nccs1` [Compound 15c, 1-{4-[((2-Oxoindolin-3-ylidene)methyl)amino]phenyl}-3-(thiazol-2-yl)urea], for which the inhibition at 10 µM in experiment [16] amounted to 47.1%; in [2], 82.7%; in experiment [17], 53.1%; in [3], 153%; in experiment [5] it was 44.3%; in experiment [6] it was 16.4%. The inhibition at 10 µM in experiment [7] is 73.2%; in experiment [8] it was 78.6%; in [9], 58%; in experiment [10], 51.6%; in [11], 61.8%. Also, the Ki in experiment [12], in [13], in experiment [14] and in experiment [15] was above 10 µM each time.
